Measured values from PubChem BioAssay (NCI).
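Compound exposure: 48 hours, 5 concentrations, 96-well plates. TGI is the concentration that stops growth completely.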

Key:
Experiment in all cases: NCI-60 cell line screen, 48 h
[1] = tested on: SK-OV-3 ovarian
[2] = tested on: IGROV1 ovarian
[3] = tested on: M14 melanoma
[4] = tested on: KM12 colon
[5] = tested on: SK-MEL-2 melanoma
[6] = tested on: MDA-N
[7] = tested on: MALME-3M melanoma
[8] = tested on: A498 renal
[9] = tested on: NCI-H522 lung
[10] = tested on: T-47D breast
[11] = tested on: MCF7 breast
[12] = tested on: COLO 205 colon
[13] = tested on: ACHN renal
[14] = tested on: SNB-19 CNS
[15] = tested on: CAKI-1 renal
[16] = tested on: DU-145 prostate
[17] = tested on: UO-31 renal
[18] = tested on: SK-MEL-5 melanoma
[19] = tested on: SK-MEL-28 melanoma
[20] = tested on: HS 578T breast
[21] = tested on: HCC-2998 colon
[22] = tested on: SF-295 CNS
[23] = tested on: SN12C renal
[24] = tested on: MDA-MB-231 breast
[25] = tested on: HT29 colon
[26] = tested on: HCT-15 colon
[27] = tested on: OVCAR-5 ovarian
[28] = tested on: A549 NSCLC
[29] = tested on: OVCAR-4 ovarian
[30] = tested on: LOX IMVI melanoma
[31] = tested on: NCI-H23 lung
[32] = tested on: EKVX NSCLC
[33] = tested on: U251 CNS
[34] = tested on: TK-10 renal
[35] = tested on: 786-0 renal
[36] = tested on: NCI/ADR-RES ovarian
[37] = tested on: OVCAR-8 ovarian
[38] = tested on: NCI-H460 lung
[39] = tested on: HOP-62 NSCLC
[40] = tested on: MDA-MB-435
[41] = tested on: K-562 leukemia
[42] = tested on: SNB-75 CNS
[43] = tested on: UACC-257 melanoma
[44] = tested on: PC-3 prostate
[45] = tested on: RPMI-8226 leukemia
[46] = tested on: OVCAR-3 ovarian
[47] = tested on: HOP-92 NSCLC
[48] = tested on: HL-60(TB) leukemia
[49] = tested on: SF-268 CNS
[50] = tested on: HCT-116 colon
[51] = tested on: NCI-H226 lung
[52] = tested on: BT-549 breast
[53] = tested on: UACC-62 melanoma
[54] = tested on: RXF 393 renal
[55] = tested on: SF-539 CNS
[56] = tested on: SW-620 colon
[57] = tested on: CCRF-CEM leukemia
[58] = tested on: MOLT-4 leukemia

COc1ccc2c(c1)c(=O)c1c(NCCN(C)C)ccc3c(=O)n(CCN(C)C)c(=O)n2c31
TGI [1]: 11.9 µM | TGI [2]: 1.2 µM | TGI [3]: 0.835 µM | TGI [4]: 0.659 µM | TGI [5]: 0.415 µM | TGI [6]: 0.254 µM | TGI [7]: 1.02 µM | TGI [8]: 1.35 µM | TGI [9]: 0.31 µM | TGI [10]: 5.77 µM | TGI [11]: 4.75 µM | TGI [12]: 0.247 µM | TGI [13]: 3.85 µM | TGI [14]: 4.3 µM | TGI [15]: 0.599 µM | TGI [16]: 1.23 µM | TGI [17]: 1.03 µM | TGI [18]: 0.594 µM | TGI [19]: 3.71 µM | TGI [20]: 0.841 µM | TGI [21]: 0.569 µM | TGI [22]: 12 µM | TGI [23]: 0.594 µM | TGI [24]: 0.855 µM | TGI [25]: 1.39 µM | TGI [26]: 2.62 µM | TGI [27]: 12.6 µM | TGI [28]: 10.2 µM | TGI [29]: 1.7 µM | TGI [30]: 1.22 µM | TGI [31]: 0.315 µM | TGI [32]: 1.31 µM | TGI [33]: 2.29 µM | TGI [34]: 3.45 µM | TGI [35]: 0.87 µM | TGI [36]: 3.63 µM | TGI [37]: 3.1 µM | TGI [38]: 1.46 µM | TGI [39]: 1.78 µM | TGI [40]: 0.538 µM | TGI [41]: 0.0354 µM | TGI [42]: 0.719 µM | TGI [43]: 0.804 µM | TGI [44]: 0.816 µM | TGI [45]: 0.3 µM | TGI [46]: 2.11 µM | TGI [47]: 0.791 µM | TGI [48]: 0.569 µM | TGI [49]: 2.13 µM | TGI [50]: 1.06 µM | TGI [51]: 0.892 µM | TGI [52]: 3.22 µM | TGI [53]: 0.984 µM

C[C@]12CC[C@@H]3c4cc(Br)c(O)c(Br)c4CC[C@H]3[C@@H]1CCC2=O
TGI [1]: 95.7 µM | TGI [2]: > 100 µM | TGI [54]: 36.7 µM | TGI [3]: > 100 µM | TGI [4]: > 100 µM | TGI [5]: 38.3 µM | TGI [6]: > 100 µM | TGI [7]: > 100 µM | TGI [8]: > 100 µM | TGI [10]: > 100 µM | TGI [11]: 43.9 µM | TGI [12]: > 100 µM | TGI [13]: 26.9 µM | TGI [55]: 39.3 µM | TGI [56]: > 100 µM | TGI [15]: 38.9 µM | TGI [16]: > 100 µM | TGI [17]: 24.2 µM | TGI [19]: > 100 µM | TGI [20]: 52.2 µM | TGI [21]: 26.9 µM | TGI [22]: 38.1 µM | TGI [23]: 65.1 µM | TGI [24]: > 100 µM | TGI [25]: > 100 µM | TGI [26]: 26.1 µM | TGI [27]: 65.2 µM | TGI [28]: 36.2 µM | TGI [29]: 41.9 µM | TGI [30]: 71.9 µM | TGI [31]: 26.7 µM | TGI [32]: 74.8 µM | TGI [33]: 36.5 µM | TGI [34]: 34.5 µM | TGI [35]: 46.4 µM | TGI [36]: 36.9 µM | TGI [37]: 39.5 µM | TGI [38]: 48.9 µM | TGI [40]: > 100 µM | TGI [41]: > 100 µM | TGI [42]: 33.3 µM | TGI [43]: 56.1 µM | TGI [44]: > 100 µM | TGI [46]: 31.4 µM | TGI [47]: > 100 µM | TGI [48]: > 100 µM | TGI [49]: 54.3 µM | TGI [50]: > 100 µM | TGI [57]: > 100 µM | TGI [51]: 26 µM | TGI [58]: 80.6 µM | TGI [52]: 57.7 µM | TGI [53]: > 100 µM

CC(=O)NC1C(OCc2ccccc2)OC(CO)C(O)C1OCC(=O)N1CCCC1C(=O)N[C@@H](CCC(=O)NCCNCCNc1c2ccccc2nc2cccc([N+](=O)[O-])c12)C(N)=O (some centres undefined)
TGI [1]: 83.3 µM | TGI [2]: 14.5 µM | TGI [54]: 6.58 µM | TGI [3]: 6.4 µM | TGI [4]: 15.6 µM | TGI [5]: 10.8 µM | TGI [6]: 6.17 µM | TGI [7]: 7.35 µM | TGI [8]: 9.21 µM | TGI [9]: 3.96 µM | TGI [10]: 93.6 µM | TGI [11]: 19.9 µM | TGI [12]: 4.97 µM | TGI [13]: 15.3 µM | TGI [55]: 10.4 µM | TGI [14]: 26.1 µM | TGI [56]: 24.5 µM | TGI [15]: 16.5 µM | TGI [16]: > 21.2 µM | TGI [17]: 14.8 µM | TGI [18]: 3.38 µM | TGI [19]: 18.2 µM | TGI [20]: 23.2 µM | TGI [21]: 8.46 µM | TGI [22]: 28.6 µM | TGI [23]: 10.6 µM | TGI [24]: 9.03 µM | TGI [25]: 9.02 µM | TGI [26]: 11.8 µM | TGI [27]: 23.1 µM | TGI [28]: 9.83 µM | TGI [29]: 14.1 µM | TGI [30]: 20.1 µM | TGI [31]: 10.6 µM | TGI [32]: 26.6 µM | TGI [33]: 12.4 µM | TGI [34]: 21.4 µM | TGI [35]: 9.17 µM | TGI [36]: 33.5 µM | TGI [37]: 15.4 µM | TGI [38]: 6.63 µM | TGI [39]: 11.7 µM | TGI [40]: 5.63 µM | TGI [41]: > 100 µM | TGI [42]: 24.8 µM | TGI [43]: 15.6 µM | TGI [44]: 13.7 µM | TGI [45]: 3.29 µM | TGI [46]: 20.4 µM | TGI [47]: 5.61 µM | TGI [48]: > 39.5 µM | TGI [49]: 25.1 µM | TGI [50]: 5.26 µM | TGI [57]: 6.22 µM | TGI [51]: 33.8 µM | TGI [58]: > 100 µM | TGI [52]: 18.9 µM | TGI [53]: 15.5 µM
